In PMC6648477 (ACS Omega, 2019):
Read-outs that look alike come from different tables or passages of the source.

Key:
double His-TEV-hMcl-1 = double His-TEV-hMcl-1 (Homo sapiens, UniProt Q07820); experiment: SPR direct binding, Mcl-1
hMcl-1 = hMcl-1 (Homo sapiens, UniProt Q07820); experiment: FP assay, displacement of F-Puma from hMcl-1; format: binding
hBcl-2 = hBcl-2 (Homo sapiens, UniProt P10415); experiment: FP assay, displacement of F-Puma from hBcl-2; format: binding
mMcl-1 = mMcl-1 (Mus musculus, UniProt P97287); experiment: 1H,15N HSQC NMR titration, Mcl-1; format: binding; conditions: Mcl-1 Kd by 1H,15N HSQC NMR (N)
[1] = biological target: Unmodified human Bcl-2 residues 1-207 (hBcl-2) (human, UniProt P10415 1-207); experiment: fluorescence polarisation
[2] = read-out: Bcl-2 eKi, FP assay, NM = not measurable at top concentration (2.5 mM or solubility limit)

mMcl-1, sequence (P97287 152-308 limits assumed): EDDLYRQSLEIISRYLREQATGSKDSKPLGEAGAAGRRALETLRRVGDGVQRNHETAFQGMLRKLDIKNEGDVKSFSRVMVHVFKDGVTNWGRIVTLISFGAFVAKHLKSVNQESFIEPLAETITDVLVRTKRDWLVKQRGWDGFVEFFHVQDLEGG
hMcl-1, sequence (Q07820 171-327 limits assumed): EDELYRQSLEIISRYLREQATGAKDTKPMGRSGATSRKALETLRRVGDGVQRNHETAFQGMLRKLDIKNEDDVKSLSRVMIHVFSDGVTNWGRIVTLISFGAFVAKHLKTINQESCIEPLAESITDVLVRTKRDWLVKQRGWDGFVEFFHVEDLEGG
hBcl-2, sequence (P10415 1-207): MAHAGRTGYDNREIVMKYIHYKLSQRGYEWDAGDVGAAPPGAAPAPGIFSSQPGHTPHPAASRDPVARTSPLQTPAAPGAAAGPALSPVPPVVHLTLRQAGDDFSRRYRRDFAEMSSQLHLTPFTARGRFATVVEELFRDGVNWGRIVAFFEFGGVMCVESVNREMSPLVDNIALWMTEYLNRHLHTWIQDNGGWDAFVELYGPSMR
double His-TEV-hMcl-1, sequence (Q07820 171-327 limits assumed): as the sequence (Q07820 171-327 limits assumed) above
Unmodified human Bcl-2 residues 1-207 (hBcl-2), sequence (P10415 1-207): as the sequence (P10415 1-207) above

| Kd (double His-TEV-hMcl-1) [µM] | Ki (hMcl-1) [µM] | Ki (hBcl-2) [µM] | Kd (mMcl-1) [µM] | Ki (hBcl-2; [2]) [µM] | binding result [1] | Molecule |
| --- | --- | --- | --- | --- | --- | --- |
| 140 | 40 | 80 | 85 | – | – | O=C(O)c1nc(C2COc3ccccc3O2)sc1Cc1ccccc1 (stereo not drawn) [Compound 22] |
| – | 500 | – | 360 | > 2500 | – | O=C(O)c1csc(C2CNc3ccccc3O2)n1 (stereo not drawn) [Compound 23] |
| – | 30 | – | 110 | > 2500 | – | O=C(O)c1csc([C@H]2CN(Cc3ccccc3)c3ccccc3O2)n1 [Compound 26] |
| – | 40 | – | 140 | > 2500 | – | O=C(O)c1csc([C@@H]2CN(Cc3ccccc3)c3ccccc3O2)n1 [Compound 27] |
| – | 20 | 500 | 220 | – | – | CCN1CC(c2nc(C(=O)O)cs2)Oc2ccccc21 (stereo not drawn) [Compound 24] |
| 450 | 40 | 800 | 40 | – | – | O=C(O)c1csc(C2CN(Cc3ccccc3)c3ccccc3O2)n1 (stereo not drawn) [Compound 25] |
| – | – | – | – | – | binds | RGEEEQWAREIGAQLRRMADDLN [Puma peptide] |
